The results in this text go back to ChEMBL document CHEMBL1833862, “Synthesis and biological evaluation of novel 2-arylamino-3-(arylsulfonyl)quinoxalines as PI3Kα inhibitors” (Eur J Med Chem, 2011).

For experiment [1], the system named is A549. The experiment can be described thus: Cytotoxicity against human A549 cells after 72 hrs by MTT assay. Particulars: A549, 72 h. In kind it is functional, cell-based. A general note: Tetrazolium dyes change colour on reduction, which living cells bring about.
Experiment [2] relates to HL-60. Briefly: Cytotoxicity against human HL60 cells after 72 hrs by MTT assay. In kind it is functional, cell-based. The note with it: HL-60, 72 h.
For experiment [3], the system named is PC-3. The experiment can be described thus: cells. Particulars: Homo sapiens, PC-3, 72 h.
Description: Cytotoxicity against human PC3 cells after 72 hrs by MTT assay
Experiment [4] concerns HCT-116. The experiment can be described thus: cells. The note with it: Homo sapiens, HCT-116, 72 h.
The subject of experiment [5] is KB. The experiment can be described thus: Cytotoxicity against human KB cells after 72 hrs by MTT assay. The class given is functional, cell-based.
Experiment [6] addresses Phosphatidylinositol 4,5-bisphosphate 3-kinase catalytic subunit alpha isoform (Homo sapiens, UniProt P42336). Briefly: Inhibition of human recombinant PI3Kalpha assessed as production of 3,4,5-inositoltriphosphate after 3 hrs by fluorescence polarization assay.

Structures are written as SMILES.

Phosphatidylinositol 4,5-bisphosphate 3-kinase catalytic subunit alpha isoform, sequence (P42336 whole entry, canonical isoform): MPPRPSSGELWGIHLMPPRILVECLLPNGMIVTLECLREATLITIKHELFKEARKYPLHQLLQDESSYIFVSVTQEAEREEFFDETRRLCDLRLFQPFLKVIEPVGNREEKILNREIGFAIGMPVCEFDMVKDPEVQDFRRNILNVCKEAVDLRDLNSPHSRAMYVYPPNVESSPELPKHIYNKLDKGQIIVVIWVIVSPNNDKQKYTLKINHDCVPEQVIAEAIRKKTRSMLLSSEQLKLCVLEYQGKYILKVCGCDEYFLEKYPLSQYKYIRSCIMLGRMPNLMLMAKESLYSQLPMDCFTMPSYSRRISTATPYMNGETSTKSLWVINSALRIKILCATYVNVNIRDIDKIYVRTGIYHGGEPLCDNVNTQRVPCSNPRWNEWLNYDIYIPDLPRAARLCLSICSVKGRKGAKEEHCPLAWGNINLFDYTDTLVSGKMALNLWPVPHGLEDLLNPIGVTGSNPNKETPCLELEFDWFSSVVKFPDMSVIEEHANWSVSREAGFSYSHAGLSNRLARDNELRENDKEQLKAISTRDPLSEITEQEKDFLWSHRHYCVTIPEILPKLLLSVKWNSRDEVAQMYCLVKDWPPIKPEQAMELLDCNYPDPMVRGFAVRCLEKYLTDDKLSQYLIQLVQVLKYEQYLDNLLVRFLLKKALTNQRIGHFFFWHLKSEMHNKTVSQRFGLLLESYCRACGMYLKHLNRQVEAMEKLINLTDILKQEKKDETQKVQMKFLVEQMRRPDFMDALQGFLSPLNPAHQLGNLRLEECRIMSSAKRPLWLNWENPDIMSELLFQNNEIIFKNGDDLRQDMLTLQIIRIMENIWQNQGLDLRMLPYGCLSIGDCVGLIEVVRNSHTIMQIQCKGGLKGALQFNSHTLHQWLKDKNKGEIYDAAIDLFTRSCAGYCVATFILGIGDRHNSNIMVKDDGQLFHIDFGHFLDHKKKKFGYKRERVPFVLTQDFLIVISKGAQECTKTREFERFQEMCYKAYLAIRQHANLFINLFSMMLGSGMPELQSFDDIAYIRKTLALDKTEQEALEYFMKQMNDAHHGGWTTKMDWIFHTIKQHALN

The IC50 is the concentration needed to halve the response being measured. Turning to `COc1cc(Nc2nc3ccccc3nc2S(=O)(=O)c2ccc(F)cc2)cc(OC)c1OC`, the half-maximal inhibitory concentration (IC50) in experiment [1] is over 50 µM; in experiment [2], 4.79 µM; in experiment [3], over 50 µM; in experiment [4] it was 3.11 µM.

Take `Nc1cccc(Nc2nc3ccccc3nc2S(=O)(=O)c2ccc(F)cc2)c1`: the IC50 in experiment [1] was 6.84 µM; in experiment [2], 4.04 µM; in experiment [3], 1.98 µM; in experiment [4], 6.79 µM.

As for `O=S(=O)(c1ccc(Br)cc1)c1nc2ccccc2nc1Nc1ccc(C(F)(F)F)cc1`, the IC50 in experiment [1] was over 50 µM; in experiment [2] it was 0.28 µM; in experiment [5], over 50 µM; in experiment [3], 4.15 µM; in experiment [4] it was 2.61 µM.

Regarding `Cc1ccc(S(=O)(=O)c2nc3ccccc3nc2Nc2ccc(Cl)cc2)cc1`, the IC50 is 54.2 µM in experiment [1]; 17.5 µM in experiment [2]; 13.8 µM in experiment [5]; 9.66 µM in experiment [3]; 2.05 µM in experiment [4].

Consider `Cc1ccc(S(=O)(=O)c2nc3ccccc3nc2Nc2ccc(F)cc2)cc1`, for which the IC50 amounted to 39.2 µM in experiment [1]; 5.1 µM in experiment [2]; 8.95 µM in experiment [5]; 13.1 µM in experiment [3]; 10.5 µM in experiment [4].

Consider `COc1ccc(S(=O)(=O)c2nc3ccccc3nc2Nc2ccc(Cl)cc2)cc1`, for which the concentration for half-maximal inhibition (IC50) in experiment [1] was determined as 87.3 µM; in experiment [2], 19.6 µM; in experiment [5] it was 49.8 µM; in experiment [3], 31.8 µM; in experiment [4] it was 26.5 µM.

As for `COc1cc(Nc2nc3ccccc3nc2S(=O)(=O)c2ccc(C)cc2)cc(OC)c1OC`, the IC50 was determined as 5.61 µM in experiment [1], 0.32 µM in experiment [2], 4.85 µM in experiment [3] and 10.8 µM in experiment [4].

With `Nc1ccc(Nc2nc3ccccc3nc2S(=O)(=O)c2ccccc2)cc1`, the IC50 in experiment [1] was found to be 12.8 µM; in experiment [2], 8.72 µM; in experiment [5] it was 3.4 µM; in experiment [3] it was 5.83 µM; in experiment [4], 10.8 µM.

`COc1ccc(S(=O)(=O)c2nc3ccccc3nc2Nc2ccccc2)cc1`: the IC50 in experiment [1] is 13.2 µM; in experiment [2], 0.26 µM; in experiment [5], 9.89 µM; in experiment [3] it was 1.26 µM; in experiment [4], 1.26 µM.

Regarding `Cc1ccc(S(=O)(=O)c2nc3ccccc3nc2Nc2cccc(N)c2)cc1`, the half-maximal inhibitory concentration (IC50) in experiment [1] was determined as 1.95 µM; in experiment [2] it was 1.08 µM; in experiment [5], 10.6 µM; in experiment [3], 2 µM; in experiment [4], 2.39 µM.

Consider `O=S(=O)(c1ccc(Br)cc1)c1nc2ccccc2nc1Nc1ccc(Cl)cc1`, for which the IC50 in experiment [1] came to 61.4 µM; in experiment [2] it was 16.4 µM; in experiment [5], 11.6 µM; in experiment [3], 7.46 µM; in experiment [4] it was 10.6 µM.

Regarding `O=S(=O)(c1ccc(Br)cc1)c1nc2ccccc2nc1Nc1ccccc1`, the IC50 in experiment [1] turned out to be 10.8 µM; in experiment [2], 0.13 µM; in experiment [5], 5.1 µM; in experiment [3], 1.18 µM; in experiment [4] it was 1.11 µM.

Turning to `COc1ccc(Nc2nc3ccccc3nc2S(=O)(=O)c2ccc(F)cc2)cc1`, the IC50 in experiment [1] stood at 4.84 µM; in experiment [2], 1.2 µM; in experiment [3], 4.33 µM; in experiment [4], 3.01 µM.

Turning to `COc1ccc(S(=O)(=O)c2nc3ccccc3nc2Nc2ccc(F)cc2)cc1`, the IC50 came out at 1.24 µM in experiment [1]; 0.61 µM in experiment [2]; 2.59 µM in experiment [5]; 2.2 µM in experiment [3]; 2.11 µM in experiment [4].

`O=S(=O)(c1ccccc1)c1nc2ccccc2nc1Nc1ccc(F)cc1`: the IC50 is over 50 µM in experiment [1]; 1.01 µM in experiment [2]; over 50 µM in experiment [5]; 14.2 µM in experiment [3]; 5.19 µM in experiment [4].

With `Cc1ccc(S(=O)(=O)c2nc3ccccc3nc2Nc2ccc(N)cc2)cc1`, the IC50 in experiment [1] is 24.6 µM; in experiment [2], 1.22 µM; in experiment [5], 5.63 µM; in experiment [3], 5 µM; in experiment [4], 11.5 µM.

Consider `COc1cc(Nc2nc3ccccc3nc2S(=O)(=O)c2ccc(Br)cc2)cc(OC)c1OC`, for which the IC50 in experiment [1] turned out to be 6.11 µM; in experiment [2], 1.02 µM; in experiment [3], 19.8 µM; in experiment [4], 13 µM.

As for `COc1ccc(S(=O)(=O)c2nc3ccccc3nc2Nc2ccc(C(F)(F)F)cc2)cc1`, the IC50 in experiment [1] came to 4.81 µM; in experiment [2], 0.22 µM; in experiment [5] it was 0.89 µM; in experiment [3], 0.33 µM; in experiment [4], 0.11 µM.

In the case of `Nc1cccc(Nc2nc3ccccc3nc2S(=O)(=O)c2ccc(Br)cc2)c1`, the IC50 in experiment [1] was found to be 1.12 µM; in experiment [2], 1.37 µM; in experiment [5], 5.34 µM; in experiment [3], 9.01 µM; in experiment [4], 3.28 µM.

As for `COc1ccc(Nc2nc3ccccc3nc2S(=O)(=O)c2ccc(OC)cc2)cc1`, the IC50 in experiment [1] was found to be 8.26 µM; in experiment [2], 1.19 µM; in experiment [3], 8.71 µM; in experiment [4] it was 29.1 µM.

On to `COc1cc(Nc2nc3ccccc3nc2S(=O)(=O)c2ccccc2)cc(OC)c1`, for which the IC50 in experiment [1] was determined as 0.07 µM; in experiment [2] it was 0.05 µM; in experiment [6], 0.07 µM; in experiment [3] it was 0.14 µM; in experiment [4] it was 0.95 µM.

With `COc1cc(Nc2nc3ccccc3nc2S(=O)(=O)c2ccc(F)cc2)cc(OC)c1`, the IC50 in experiment [1] was found to be 5.45 µM; in experiment [2], 2.36 µM; in experiment [3], 4.53 µM; in experiment [4], 3.93 µM.

With `O=S(=O)(c1ccccc1)c1nc2ccccc2nc1Nc1ccc(Cl)cc1`, the concentration for half-maximal inhibition (IC50) amounted to 30.7 µM in experiment [1]; 1.92 µM in experiment [2]; 41.2 µM in experiment [5]; 15.3 µM in experiment [3]; 2 µM in experiment [4].

As to `COc1cc(Nc2nc3ccccc3nc2S(=O)(=O)c2ccc(Br)cc2)cc(OC)c1`, the IC50 in experiment [1] is 15.8 µM; in experiment [2], 2.54 µM; in experiment [3], 18.2 µM; in experiment [4], over 50 µM.

As for `COc1ccc(S(=O)(=O)c2nc3ccccc3nc2Nc2cc(OC)c(OC)c(OC)c2)cc1`, the IC50 in experiment [1] was 5.17 µM; in experiment [2], 0.68 µM; in experiment [3] it was 7.85 µM; in experiment [4], over 50 µM.

Consider `COc1ccc(S(=O)(=O)c2nc3ccccc3nc2Nc2ccc(N)cc2)cc1`, for which the concentration for half-maximal inhibition (IC50) in experiment [1] turned out to be 2.99 µM; in experiment [2], 0.71 µM; in experiment [5], 17.8 µM; in experiment [3], 9.64 µM; in experiment [4], 6.3 µM.

As for `Nc1ccc(Nc2nc3ccccc3nc2S(=O)(=O)c2ccc(F)cc2)cc1`, the IC50 came to 12.7 µM in experiment [1], 1.62 µM in experiment [2], 2.05 µM in experiment [3] and 10.1 µM in experiment [4].

As for `COc1ccc(Nc2nc3ccccc3nc2S(=O)(=O)c2ccccc2)cc1`, the IC50 in experiment [1] was 11.9 µM; in experiment [2] it was 0.64 µM; in experiment [3], 1.51 µM; in experiment [4], 2.42 µM.

For `COc1ccc(S(=O)(=O)c2nc3ccccc3nc2Nc2cc(OC)cc(OC)c2)cc1`, the IC50 came to 12.7 µM in experiment [1], 1.71 µM in experiment [2], 6.22 µM in experiment [3] and 13.4 µM in experiment [4].

As to `O=S(=O)(c1ccccc1)c1nc2ccccc2nc1Nc1ccccc1`, the half-inhibitory concentration (IC50) in experiment [1] is 26.3 µM; in experiment [2], 0.14 µM; in experiment [5], 22.6 µM; in experiment [3], 0.59 µM; in experiment [4] it was 1.63 µM.

As to `COc1ccc(Nc2nc3ccccc3nc2S(=O)(=O)c2ccc(C)cc2)cc1`, the IC50 in experiment [1] is over 50 µM; in experiment [2] it was 2.79 µM; in experiment [3] it was over 50 µM; in experiment [4] it was over 50 µM.

`O=c1cc(N2CCOCC2)oc2c(-c3ccccc3)cccc12` [LY-294002]: the IC50 in experiment [1] was 89.7 µM; in experiment [2], 9.94 µM; in experiment [5], 44.8 µM; in experiment [3], 61.4 µM; in experiment [4], 56 µM.

With `Nc1cccc(Nc2nc3ccccc3nc2S(=O)(=O)c2ccccc2)c1`, the IC50 in experiment [1] is 1.59 µM; in experiment [2], 1.75 µM; in experiment [5] it was 4.29 µM; in experiment [3] it was 2.15 µM; in experiment [4] it was 1.54 µM.

For `Cc1ccc(S(=O)(=O)c2nc3ccccc3nc2Nc2ccccc2)cc1`, the IC50 in experiment [1] turned out to be 12.5 µM; in experiment [2], 0.4 µM; in experiment [5], 19 µM; in experiment [3], 1.06 µM; in experiment [4] it was 1.07 µM.

`Cc1ccc(S(=O)(=O)c2nc3ccccc3nc2Nc2ccc(C(F)(F)F)cc2)cc1`: the IC50 in experiment [1] worked out at 13.5 µM; in experiment [2], 0.27 µM; in experiment [5], 10.3 µM; in experiment [3], 2.54 µM; in experiment [4] it was 0.95 µM.

`O=S(=O)(c1ccc(Br)cc1)c1nc2ccccc2nc1Nc1ccc(F)cc1`: the IC50 was 4.36 µM in experiment [1]; 0.26 µM in experiment [2]; 2.28 µM in experiment [5]; 9.16 µM in experiment [3]; 1.67 µM in experiment [4].

`COc1ccc(S(=O)(=O)c2nc3ccccc3nc2Nc2cccc(N)c2)cc1`: the IC50 in experiment [1] stood at 0.34 µM; in experiment [2], 1.49 µM; in experiment [5] it was 4.96 µM; in experiment [3] it was 8.6 µM; in experiment [4], 3.71 µM.

In the case of `COc1ccc(Nc2nc3ccccc3nc2S(=O)(=O)c2ccc(Br)cc2)cc1`, the IC50 came out at 3.34 µM in experiment [1], 1.19 µM in experiment [2], 1.11 µM in experiment [3] and 3.4 µM in experiment [4].

For `O=S(=O)(c1ccccc1)c1nc2ccccc2nc1Nc1ccc(C(F)(F)F)cc1`, the IC50 in experiment [1] was over 50 µM; in experiment [2], 0.3 µM; in experiment [5] it was over 50 µM; in experiment [3], 3.55 µM; in experiment [4] it was 2.09 µM.

With `COc1cc(Nc2nc3ccccc3nc2S(=O)(=O)c2ccccc2)cc(OC)c1OC`, the IC50 was 9.66 µM in experiment [1], 1.77 µM in experiment [2], 29.1 µM in experiment [3] and over 50 µM in experiment [4].
